Tests used:
[1] = 313.15 K; Liquid; Closed cell (Static) method
[2] = excess molar enthalpy (molar enthalpy of mixing); xn = mol fraction of the nth substance listed; conditions: 101 kPa, Liquid, Flow calorimetry

CC(C)CC(C)(C)C [2,2,4-trimethylpentane]
Conditions | vapor or sublimation pressure [kPa]
[1] | 12.97

CC(C)CC(C)(C)C [2,2,4-trimethylpentane] + CCCC(C)O
[2], x2 = 0
Conditions | excess molar enthalpy [kcal/mol]
298.15 K | 0
313.15 K | 0

CCCCCCC [heptane]
Conditions | vapor or sublimation pressure [kPa]
[1] | 12.31

CCCCCCC [heptane] + CCCC(C)O
[2], x2 = 0
Conditions | excess molar enthalpy [kcal/mol]
298.15 K | 0
313.15 K | 0

CCCC(C)O (configuration not stated) [pentan-2-ol]
Conditions | vapor or sublimation pressure [kPa]
[1] | 2.295

CCCC(C)O (configuration not stated) [pentan-2-ol] + CC(C)CC(C)(C)C
excess molar enthalpy [kcal/mol], [2]
Conditions | 298.15 K | 313.15 K
x1 = 0.0507 | 0.114 | 0.146
x1 = 0.0997 | 0.154 | –
x1 = 0.0998 | – | 0.196
x1 = 0.1498 | 0.173 | –
x1 = 0.1499 | – | 0.224
x1 = 0.2009 | 0.19 | 0.243
x1 = 0.2499 | – | 0.258
x1 = 0.25 | 0.202 | –
x1 = 0.3022 | 0.213 | –
x1 = 0.3023 | – | 0.268
x1 = 0.3502 | – | 0.271
x1 = 0.3503 | 0.22 | –
x1 = 0.401 | – | 0.273
x1 = 0.4011 | 0.227 | –
x1 = 0.452 | – | 0.272
x1 = 0.4521 | 0.229 | –
x1 = 0.501 | – | 0.267
x1 = 0.5011 | 0.229 | –
x1 = 0.552 | – | 0.26
x1 = 0.5521 | 0.22 | –
x1 = 0.601 | 0.21 | 0.248
x1 = 0.6516 | – | 0.231
x1 = 0.6517 | 0.196 | –
x1 = 0.7018 | – | 0.211
x1 = 0.7019 | 0.177 | –
x1 = 0.7516 | – | 0.185
x1 = 0.7517 | 0.155 | –
x1 = 0.8008 | – | 0.158
x1 = 0.8009 | 0.128 | –
x1 = 0.851 | 0.0997 | 0.122
x1 = 0.9002 | 0.0677 | 0.0855
x1 = 0.95 | 0.0338 | 0.0441
x1 = 1 | 0 | 0

CCCC(C)O (configuration not stated) [pentan-2-ol] + CCCCCCC
excess molar enthalpy [kcal/mol], [2]
Conditions | 298.15 K | 313.15 K
x1 = 0.0504 | – | 0.146
x1 = 0.0505 | 0.117 | –
x1 = 0.0996 | – | 0.197
x1 = 0.0997 | 0.151 | –
x1 = 0.1475 | – | 0.223
x1 = 0.1477 | 0.173 | –
x1 = 0.1967 | – | 0.242
x1 = 0.1969 | 0.19 | –
x1 = 0.2469 | – | 0.256
x1 = 0.2472 | 0.203 | –
x1 = 0.2956 | – | 0.265
x1 = 0.2962 | 0.211 | –
x1 = 0.3455 | – | 0.27
x1 = 0.346 | 0.219 | –
x1 = 0.3962 | – | 0.273
x1 = 0.3967 | 0.225 | –
x1 = 0.4454 | – | 0.273
x1 = 0.4459 | 0.227 | –
x1 = 0.4953 | – | 0.27
x1 = 0.4958 | 0.226 | –
x1 = 0.5458 | – | 0.263
x1 = 0.5463 | 0.221 | –
x1 = 0.5968 | – | 0.251
x1 = 0.5972 | 0.212 | –
x1 = 0.6462 | – | 0.237
x1 = 0.6466 | 0.2 | –
x1 = 0.6959 | – | 0.214
x1 = 0.6963 | 0.181 | –
x1 = 0.7477 | – | 0.19
x1 = 0.748 | 0.159 | –
x1 = 0.7979 | – | 0.161
x1 = 0.7981 | 0.132 | –
x1 = 0.8481 | – | 0.127
x1 = 0.8483 | 0.103 | –
x1 = 0.8984 | – | 0.088
x1 = 0.8985 | 0.0706 | –
x1 = 0.9485 | – | 0.0461
x1 = 0.9486 | 0.0359 | –
x1 = 1 | 0 | 0

From the NIST ThermoML archive (doi:10.1016/j.fluid.2014.10.016)
